Patent US8193154B2, “Oligopeptide tyrosinase inhibitors and uses thereof” (The Board of Trustees of the Leland Stanford Junior …, priority 2007, dated 2012)
Like-named read-outs stand apart in the source and are kept apart here.

Key:
[1] = system: Human melanocytes; assay: Melanin content measurement in melanocytes; type: cell-based; conditions: FIG. 4; for melanin content: 10 μM (YR peptide: similar concentration), 7 days
Protocol: Human melanocytes were cultured in 6-well plates and treated with individual test samples for 7 d. After washes in PBS, cells were detached by short incubation in trypsin/EDTA (0.25%/0.1% in PBS). An aliquot was used for cell count. The remaining cells were sonicated and incubated overnight in 500 μl 1 M NaOH at 37° C., avoid light. Melanin concentrations were calculated by comparison of the OD at 475 nm of unknown samples with a standard curve obtained with synthetic melanin.
To provide more direct evidence that the YR peptide inhibits melanogenesis, we determined its effects on melanin production in melanocytes. The contents of melanin in melanocytes treated with no addition, YR peptide (P4) or HQ for 7 days were determined with spectrophotometer and compared with melanin standard curve.

[2] = molecular target: tyrosinase; conditions: read-out: published IC50; literature value; cited from earlier work
[3] = molecular target: T1, Cellular tyrosinase (Homo sapiens, UniProt P14679); assay: Cellular tyrosinase activity using L-DOPA as the substrate; type: cell-based; conditions: for reduction of cellular tyrosinase activity: 7 d treatment of melanocytes
T1 construct: endogenous in cells; host or cells: primary human melanocytes, passage 3
T1 sequence (P14679 19-529): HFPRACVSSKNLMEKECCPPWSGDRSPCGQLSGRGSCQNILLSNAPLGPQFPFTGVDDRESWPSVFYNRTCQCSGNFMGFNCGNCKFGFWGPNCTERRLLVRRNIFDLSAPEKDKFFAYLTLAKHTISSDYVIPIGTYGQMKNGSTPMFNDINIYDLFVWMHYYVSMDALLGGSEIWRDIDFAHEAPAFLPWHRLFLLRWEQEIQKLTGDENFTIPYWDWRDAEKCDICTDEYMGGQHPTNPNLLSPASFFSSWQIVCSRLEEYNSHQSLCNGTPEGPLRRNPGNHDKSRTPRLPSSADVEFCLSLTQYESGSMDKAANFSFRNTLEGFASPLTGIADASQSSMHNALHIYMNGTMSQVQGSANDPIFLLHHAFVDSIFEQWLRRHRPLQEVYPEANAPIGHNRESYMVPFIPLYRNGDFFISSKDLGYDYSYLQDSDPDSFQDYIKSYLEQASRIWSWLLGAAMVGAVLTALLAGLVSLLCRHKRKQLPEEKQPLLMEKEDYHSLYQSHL
Protocol: Cellular tyrosinase activity using L-DOPA as the substrate was assayed by the method of Cheng K T, Hsu F L, Chen S H, Hsieh P K, Huang H S, Lee C K, Lee M H. 2007. […] Chem. Pharm Bull 55(5): 757-761.
Human melanocytes were cultured in 6-well plates. After treatment with individual test samples for 7 d, the cells were washed with phosphate-buffered saline (PBS) and lysed with phosphate buffer, pH 6.8, containing 1% Triton X-100. After sonication, lysates were clarified by centrifugation at 10000 g for 10 min. After determination of protein content with a Bio-Rad protein assay kit, lysates were added to 96 well culture plate containing equal amounts of protein (40 μg), and adjusted with lysis buffer to reach 150 μl in each well. 75 μl of 10 mM L-DOPA dissolved in lysis buffer was added to each well. The culture plate was incubated at 37° C. for 30 min, and then read with the spectrophotometer at 475 nm.
Tyrosinase inhibitory activity was calculated with the following formula: tyrosinase inhibition (%)=[1−(O.D.475 of sample/O.D.475 of control)]×100%.
After centrifugation and protein calculation, certain volume of supernatant for each sample was transferred to 96 well culture plate by compensating a certain protein content in each well, and adjusted the volume of each well to 150 μl with 0.067 M of phosphate buffer (pH 6.8). 75 μl of 10 mM L-DOPA dissolved in phosphate buffer (pH 6.8) was added to each well. The culture plate was incubated at 37° C. for 30 min, and then read with the spectrophotometer at 475 nm.

[4] = system: Primary human melanocytes; conditions: for effect on melanocyte proliferation rates: FIG. 3
Protocol: Primary human melanocytes, passage 3, were kindly obtained from Dr. Todd Ridky in the department of dermatology, Stanford University. Cells were cultured in Medium 254 (Cascade Biologics) supplemented with Human Melanocyte Growth Supplement (HMGS, Cascade Biologics). They were grown in a humidified atmosphere with 5% CO2 at 37° C. Cell plating densities were arranged that those cells were in log phase of growth for the duration of incubation with test samples. Subcultures of cells were plated at a density of 4×10^4 cells/cm^2. Approximately 24 h later, fresh medium and test samples were added. Cells were harvested 7 d after test samples addition, replaced with fresh medium and test samples every two days.
Cell viability was determined using WST-1 Cell Proliferation Kit (Roche). Cells were plated at 1×10^5/well (24-well plates). Twenty-four hours after plating, test samples were added and cultures were incubated for an additional 7 d. At the end of the treatment period, 50 μl WST-1 was added to each well. The plates were placed at 37° C. for 4 h in the dark and the absorbance at 450 nm was read using microplate. Usually, 3 replicate wells were measured for each group to be tested. Wells containing medium but no cells served as controls. Cell viability was calculated according to the equation: cell viability=absorbance(sample tested)/absorbance(medium only)×100%.
The concentrations of HQ tested on melanocytes were 1, 10, 100, and 1000 μM, while those of YR peptide were 1, 10, and 100 μM.

[5] = molecular target: Mushroom tyrosinase; assay: Mushroom tyrosinase inhibition, colorimetric detection of dopachrome from L-tyrosine; type: biochemical; conditions: for IC50 (result in words): L-tyrosine substrate, pH 6.8, 37° C., absorbance at 475 nm 30 min after initiation; for inhibitory activity on tyrosinase: in vitro, FIG. 1, FIG. 2 and peptide screen
Protocol: Mushroom tyrosinase, L-tyrosine and other chemicals for the enzymatic reaction were obtained from Sigma-Aldrich. […] All synthetic peptides were between 3 and 10 amino acids in length and were synthesized using tBoc and/or Fmoc solid phase chemistry.
Inhibition of tyrosinase by experimental peptides was determined by colorimetric detection of dopachrome, the reaction product of the substrate L-tyrosine. Mushroom tyrosinase, L-tyrosine, and a potassium phosphate buffer (pH 6.8) were added to 96-well plates containing short sequence peptides dissolved in 5% DMSO and incubated at 37° C. The absorbance at 475 nm was measured using a BIO-TEK plate reader 30 min after reaction initiation. Each experiment was performed in triplicate on 3 separate occasions. The protocol is described in further detail in Piao et al., “Mushroom Tyrosinase Inhibition Activity of Some Chromones,” Chem. Pharm. Bull. […]: 309-311 (2002), and in Pomerants, J. Biol. Chem. 238:2351-2357 (1963).
Enzyme kinetics were calculated using the Michaelis-Menton equation by observing changes in reaction velocity accompanying substrate concentrations of 0.5, 1, 2, and 4 mM L-tyrosine. Once initial reaction velocities were obtained, Lineweaver-Burke plots were created to calculate Km, Vmax, and to determine the mode of enzymatic inhibition.
Tyrosinase inhibition activity was determined in vitro using L-tyrosine as substrate with a modified method from Piao L Z, Park H R, Park Y K, Lee S K, Park J H, Park M K. 2002. Mushroom Tyrosinase Inhibition Activity of Some Chromones. Chem. Pharm Bull 50(3): 309-311.
The concentration of enzyme, substrate and inhibitor was denoted as [E], [S] and […], respectively. 80 microliters of 0.067 M potassium phosphate buffer (pH 6.8), 40 microliters of L-tyrosine in 0.067 M potassium phosphate buffer (pH 6.8), 40 microliters of inhibitor in 5% DMSO solution, and 40 microliters of mushroom tyrosinase solution were added to a 96-well microplate, to make the final concentration of each reagent to be: 0.2 mg/ml [S], and 96 units/ml [E], with varying [I]. 5% DMSO solution instead of an inhibitor solution was added to a blank solution and adjusted to the total volume of 200 microliters as control. The assay mixture was incubated at 37° C. The amount of dopachrome produced in the reaction mixture was measured at 475 nm in a microplate reader at different time periods. The percentage of inhibition of tyrosinase activity was calculated as follows: Inhibition(%)=[(A−B)−C−D)]/(A−B)×100 • A: absorbance of blank solution after incubation • B: absorbance of blank solution before incubation • C: absorbance of sample solution after incubation • D: absorbance of sample solution before incubation

## Oc1ccc(O)cc1 [HQ, Hydroquinone, reference compound]
[1]
  melanin content: slightly reduced melanin content
[2]
  IC50: ~700 µM
[3]; 10 μM
  reduction of cellular tyrosinase activity: 28.8%
[4]; up to 10 μM
  effect on melanocyte proliferation rates: did not show inhibitory effects

## KFEFKFEF
[5]
  IC50 (result in words): no effect
  inhibitory activity on tyrosinase: only the former peptide had inhibiting activity

## KFEKKFEK
[5]
  inhibitory activity on tyrosinase: had inhibiting activity

## VLLK [control peptide; inner standard in stability testing]
[5]
  IC50 (result in words): no effect
  inhibitory activity on tyrosinase: only the YR peptide had inhibitory activity

## YRSRKYSSWY
[1]
  melanin content: significantly reduced melanin content, to a greater extent than HQ
  melanin synthesis in human melanocytes: inhibited melanin synthesis
[5]
  inhibitory activity on tyrosinase: had inhibitory activity on tyrosinase
[3]; 1 μM
  reduction of cellular tyrosinase activity: 14.5%
[3]; 10 μM
  reduction of cellular tyrosinase activity: 24.1%
[3]; 100 μM
  reduction of cellular tyrosinase activity: 37.4%
[3]; FIG. 5, after incubation of melanocytes
  inhibition of tyrosinase activity, in words: comparable to that of HQ
[4]; 1, 10 and 100 μM, listed as P4
  effect on melanocyte proliferation rates: did not observe any inhibitory effects
[4]; 1, 10 and 100 μM, listed as YR peptide
  effect on melanocyte proliferation rates: did not inhibit cell proliferation
[4]; up to 100 μM, treatment for 7 days
  toxicity to melanocytes: No toxicity was observed
